Measurements: US9695155B2, “Herbicidal substituted pyrimidinyloxy benzene compounds” (E. I. DU PONT DE NEMOURS AND COMPANY, priority 2013, dated 2017)

Columns and labels:
velvetleaf [1] = experiment: Test A postemergence; type: in vivo, Abutilon theophrasti; conditions: for Velvetleaf plant response rating: 125 g ai/ha
Outline: (§1)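 Compounds in non-phytotoxic solvent with surfactant applied as soil spray preemergence, or postemergence to plants 2-10 cm at one- to two-leaf stage, in loam/sand. After approximately 10 days in greenhouse, injury rated visually versus untreated controls, 0 (no effect) to 100 (complete control).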

morningglory [2] = experiment: Test A postemergence; type: in vivo, Ipomoea spp.; conditions: for Morningglory plant response rating: 125 g ai/ha
Outline: as §1

pigweed [3] = experiment: Test A preemergence; type: in vivo, Amaranthus retroflexus; conditions: for Pigweed plant response rating (0 to 100 scale): 125 g ai/ha
Outline: as §1

giant foxtail [4] = experiment: Test A preemergence; type: in vivo, Setaria faberii; conditions: for Foxtail, Giant plant response rating (0 to 100 scale): 125 g ai/ha
Outline: as §1

wheat [5] = experiment: Test A postemergence; type: in vivo, Triticum aestivum; conditions: for Wheat plant response rating: 125 g ai/ha
Outline: as §1

sedge, umbrella = experiment: Test B flooded paddy test; type: in vivo, Cyperus difformis; conditions: Flood, 250 g ai/ha; 0 to 100 scale where 0 is no effect and 100 is complete control
Outline: (§2)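 Flooded to 3 cm at the 2-leaf stage, pots received compound through the paddy water and were kept at that depth under greenhouse conditions. After 13–15 days, effect was rated by eye relative to controls, 0 = none and 100 = complete control.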

corn [6] = experiment: Test A preemergence; type: in vivo, Zea mays; conditions: for Corn plant response rating (0 to 100 scale): 125 g ai/ha
Outline: as §1

pigweed [7] = experiment: Test A postemergence; type: in vivo, Amaranthus retroflexus; conditions: for Pigweed plant response rating: 125 g ai/ha
Outline: as §1

morningglory [8] = experiment: Test A preemergence; type: in vivo, Ipomoea spp.; conditions: for Morningglory plant response rating (0 to 100 scale): 125 g ai/ha
Outline: as §1

rice = experiment: Test B flooded paddy test; type: in vivo, Oryza sativa; conditions: Flood, 250 g ai/ha; 0 to 100 scale where 0 is no effect and 100 is complete control
Outline: as §2

barnyardgrass [9] = experiment: Test B flooded paddy test; type: in vivo, Echinochloa crus-galli; conditions: Flood, 250 g ai/ha; 0 to 100 scale where 0 is no effect and 100 is complete control
Outline: as §2

large (Lg) crabgrass [10] = experiment: Test A postemergence; type: in vivo, Digitaria sanguinalis; conditions: for Crabgrass, Large plant response rating: 125 g ai/ha
Outline: as §1

giant foxtail [11] = experiment: Test A postemergence; type: in vivo, Setaria faberii; conditions: for Foxtail, Giant plant response rating: 125 g ai/ha
Outline: as §1

wheat [12] = experiment: Test A preemergence; type: in vivo, Triticum aestivum; conditions: for Wheat plant response rating (0 to 100 scale): 125 g ai/ha
Outline: as §1

Heteranthera limosa = experiment: Test B flooded paddy test; type: in vivo; conditions: Flood, 250 g ai/ha; 0 to 100 scale where 0 is no effect and 100 is complete control
Outline: as §2

barnyardgrass [13] = experiment: Test A preemergence; type: in vivo, Echinochloa crus-galli; conditions: for Barnyardgrass plant response rating (0 to 100 scale, 0 is no effect, 100 is complete control): 125 g ai/ha
Outline: as §1

corn [14] = experiment: Test A postemergence; type: in vivo, Zea mays; conditions: for Corn plant response rating: 125 g ai/ha
Outline: as §1

barnyardgrass [15] = experiment: Test A postemergence; type: in vivo, Echinochloa crus-galli; conditions: for Barnyardgrass plant response rating: 125 g ai/ha
Outline: as §1

velvetleaf [16] = experiment: Test A preemergence; type: in vivo, Abutilon theophrasti; conditions: for Velvetleaf plant response rating (0 to 100 scale): 125 g ai/ha
Outline: as §1

large (Lg) crabgrass [17] = experiment: Test A preemergence; type: in vivo, Digitaria sanguinalis; conditions: for Crabgrass, Large plant response rating (0 to 100 scale): 125 g ai/ha
Outline: as §1

[18] = 0 to 100 scale where 0 is no effect and 100 is complete control
[19] = 500 g ai/ha, 0 to 100 scale where 0 is no effect and 100 is complete control
[20] = 1000 g ai/ha, 0 to 100 scale, 0 no effect, 100 complete control
[21] = 1000 g ai/ha, 0 to 100 scale, 0 no effect, 100 complete control, approx. 10 days

Row | Compound | Velvetleaf plant response rating (velvetleaf [1]; [18]) | Plant response rating, Velvetleaf (velvetleaf [1]; [19]) | Morningglory plant response rating (morningglory [2]; [18]) | Plant response rating, Morningglory (morningglory [2]; [19]) | Pigweed plant response rating (0 to 100 scale) (pigweed [3]) | Pigweed plant response rating (pigweed [3]; [19]) | Foxtail, Giant plant response rating (0 to 100 scale) (giant foxtail [4]) | Foxtail, Giant plant response rating (giant foxtail [4]; [19]) | Wheat plant response rating (wheat [5]; [18]) | Plant response rating, Wheat (wheat [5]; [19]) | Plant response rating, Sedge, Umbrella (sedge, umbrella) | Corn plant response rating (0 to 100 scale) (corn [6]) | Corn plant response rating (corn [6]; [19]) | Pigweed plant response rating (pigweed [7]; [18]) | Plant response rating, Pigweed (pigweed [7]; [19]) | Morningglory plant response rating (0 to 100 scale) (morningglory [8]) | Morningglory plant response rating (morningglory [8]; [19]) | Plant response rating, Rice (rice) | Plant response rating, Barnyardgrass (barnyardgrass [9]) | Plant response rating, Ducksalad (Heteranthera limosa) | also measured
1 | Clc1cnc(Oc2ccccc2-n2cc(-c3ccccn3)cn2)nc1 [Compound 190] | 60 | 80 | 30 | 90 | 100 | 100 | 10 | 80 | 0 | 0 | 0 | 0 | 0 | 100 | 100 | 0 | 20 | 0 | 0 | 0 | Crabgrass, Large plant response rating (large (Lg) crabgrass [10]; [18]): 10; Plant response rating, Crabgrass, Large (large (Lg) crabgrass [10]; [19]): 50; Foxtail, Giant plant response rating (giant foxtail [11]; [18]): 0; Plant response rating, Foxtail, Giant (giant foxtail [11]; [19]): 40; Wheat plant response rating (0 to 100 scale) (wheat [12]): 0; Wheat plant response rating (wheat [12]; [19]): 0; Barnyardgrass plant response rating (0 to 100 scale, 0 is no effect, 100 is complete control) (barnyardgrass [13]): 0; Barnyardgrass plant response rating (barnyardgrass [13]; [19]): 10; Corn plant response rating (corn [14]; [18]): 0; Plant response rating, Corn (corn [14]; [19]): 20; Barnyardgrass plant response rating (barnyardgrass [15]; [18]): 0; Plant response rating, Barnyardgrass (barnyardgrass [15]; [19]): 10; Velvetleaf plant response rating (0 to 100 scale) (velvetleaf [16]): 50; Velvetleaf plant response rating (velvetleaf [16]; [19]): 60; Crabgrass, Large plant response rating (0 to 100 scale) (large (Lg) crabgrass [17]): 20; Crabgrass, Large plant response rating (large (Lg) crabgrass [17]; [19]): 90
2 | N#Cc1cccc(Oc2ncc(Cl)cn2)c1-n1cncn1 [Compound 193] | – | – | – | – | – | – | – | – | – | – | 0 | – | – | – | – | – | – | 0 | 0 | 0 | Plant response rating, Velvetleaf (velvetleaf [1]; [20]): 90; Plant response rating, Morningglory (morningglory [2]; [20]): 90; Pigweed plant response rating (pigweed [3]; [21]): 100; Foxtail, Giant plant response rating (giant foxtail [4]; [21]): 100; Plant response rating, Wheat (wheat [5]; [20]): 20; Corn plant response rating (corn [6]; [21]): 20; Plant response rating, Pigweed (pigweed [7]; [20]): 100; Morningglory plant response rating (morningglory [8]; [21]): 100; Plant response rating, Crabgrass, Large (large (Lg) crabgrass [10]; [20]): 80; Plant response rating, Foxtail, Giant (giant foxtail [11]; [20]): 80; Wheat plant response rating (wheat [12]; [21]): 20; Barnyardgrass plant response rating (barnyardgrass [13]; [21]): 60; Plant response rating, Corn (corn [14]; [20]): 60; Plant response rating, Barnyardgrass (barnyardgrass [15]; [20]): 90; Velvetleaf plant response rating (velvetleaf [16]; [21]): 90; Crabgrass, Large plant response rating (large (Lg) crabgrass [17]; [21]): 100
3 | Fc1cc(Oc2ncc(Cl)cn2)c(-n2cc(Br)cn2)cc1F [Compound 196] | 100 | 100 | 20 | 80 | 90 | 100 | 50 | 90 | 0 | 10 | 70 | 0 | 0 | 100 | 100 | 0 | 0 | 0 | 20 | 85 | Crabgrass, Large plant response rating (large (Lg) crabgrass [10]; [18]): 30; Plant response rating, Crabgrass, Large (large (Lg) crabgrass [10]; [19]): 90; Foxtail, Giant plant response rating (giant foxtail [11]; [18]): 30; Plant response rating, Foxtail, Giant (giant foxtail [11]; [19]): 80; Wheat plant response rating (0 to 100 scale) (wheat [12]): 0; Wheat plant response rating (wheat [12]; [19]): 0; Barnyardgrass plant response rating (0 to 100 scale, 0 is no effect, 100 is complete control) (barnyardgrass [13]): 0; Barnyardgrass plant response rating (barnyardgrass [13]; [19]): 40; Corn plant response rating (corn [14]; [18]): 10; Plant response rating, Corn (corn [14]; [19]): 40; Barnyardgrass plant response rating (barnyardgrass [15]; [18]): 10; Plant response rating, Barnyardgrass (barnyardgrass [15]; [19]): 50; Velvetleaf plant response rating (0 to 100 scale) (velvetleaf [16]): 20; Velvetleaf plant response rating (velvetleaf [16]; [19]): 40; Crabgrass, Large plant response rating (0 to 100 scale) (large (Lg) crabgrass [17]): 60; Crabgrass, Large plant response rating (large (Lg) crabgrass [17]; [19]): 100
4 | C#Cc1cccc(Oc2ncc(Cl)cn2)c1-n1cc(Br)cn1 [Compound 199] | 70 | 100 | 40 | 60 | 90 | 100 | 90 | 100 | 0 | 30 | 70 | 0 | 0 | 80 | 100 | 0 | 20 | 20 | 0 | 70 | Crabgrass, Large plant response rating (large (Lg) crabgrass [10]; [18]): 40; Plant response rating, Crabgrass, Large (large (Lg) crabgrass [10]; [19]): 90; Foxtail, Giant plant response rating (giant foxtail [11]; [18]): 70; Plant response rating, Foxtail, Giant (giant foxtail [11]; [19]): 90; Wheat plant response rating (0 to 100 scale) (wheat [12]): 0; Wheat plant response rating (wheat [12]; [19]): 0; Barnyardgrass plant response rating (0 to 100 scale, 0 is no effect, 100 is complete control) (barnyardgrass [13]): 20; Barnyardgrass plant response rating (barnyardgrass [13]; [19]): 80; Corn plant response rating (corn [14]; [18]): 20; Plant response rating, Corn (corn [14]; [19]): 60; Barnyardgrass plant response rating (barnyardgrass [15]; [18]): 30; Plant response rating, Barnyardgrass (barnyardgrass [15]; [19]): 80; Velvetleaf plant response rating (0 to 100 scale) (velvetleaf [16]): 20; Velvetleaf plant response rating (velvetleaf [16]; [19]): 90; Crabgrass, Large plant response rating (0 to 100 scale) (large (Lg) crabgrass [17]): 100; Crabgrass, Large plant response rating (large (Lg) crabgrass [17]; [19]): 100
5 | O=Cc1cccc(Oc2ncc(Br)cn2)c1-n1cc(Cl)cn1 [Compound 206] | 10 | 20 | 0 | 0 | 0 | 50 | 0 | 0 | 0 | 0 | 0 | 0 | 0 | 0 | 0 | 0 | 0 | 0 | 0 | 0 | Crabgrass, Large plant response rating (large (Lg) crabgrass [10]; [18]): 0; Plant response rating, Crabgrass, Large (large (Lg) crabgrass [10]; [19]): 0; Foxtail, Giant plant response rating (giant foxtail [11]; [18]): 0; Plant response rating, Foxtail, Giant (giant foxtail [11]; [19]): 0; Wheat plant response rating (0 to 100 scale) (wheat [12]): 0; Wheat plant response rating (wheat [12]; [19]): 0; Barnyardgrass plant response rating (0 to 100 scale, 0 is no effect, 100 is complete control) (barnyardgrass [13]): 0; Barnyardgrass plant response rating (barnyardgrass [13]; [19]): 0; Corn plant response rating (corn [14]; [18]): 0; Plant response rating, Corn (corn [14]; [19]): 0; Barnyardgrass plant response rating (barnyardgrass [15]; [18]): 0; Plant response rating, Barnyardgrass (barnyardgrass [15]; [19]): 0; Velvetleaf plant response rating (0 to 100 scale) (velvetleaf [16]): 0; Velvetleaf plant response rating (velvetleaf [16]; [19]): 0; Crabgrass, Large plant response rating (0 to 100 scale) (large (Lg) crabgrass [17]): 0; Crabgrass, Large plant response rating (large (Lg) crabgrass [17]; [19]): 0
